Assay [1] in a line: inhibitors of PAF-induced NFkB signaling in CF airway cells, dose response, cell-based, uHTS hits, panel, cytotoxicity readout (AID 624344). The note with it: CF bronchial epithelial cells, PAF-induced NFkB reporter inhibition; with PAF, mean of runs.
Another assay concerns Cytotoxicity. The description is as above. The note with it: CF bronchial epithelial cells, mean of runs.

Active and inactive are the calls of the source. The rule behind the calls is not given here. Where only a bound is given, the exact number is not on record here.

One may read the IC50 as the concentration that gives 50% inhibition. On to `Cc1ccc(NC(=O)/C=C/c2ccco2)nc1`, for which the results for the IC50 (in assay [1]; in the assay on Cytotoxicity) were 8.27 µM and > 79 µM (inactive), respectively.
With `CCOc1ccccc1NC(=O)c1nc(S(=O)(=O)Cc2ccccc2)ncc1Cl`, the IC50 in assay [1] was 1.83 µM; in the assay with Cytotoxicity, 2.27 µM.
`CN(C)c1ccnc2sc3c(=O)n(Cc4ccccc4)cnc3c12`: the results for the IC50 (in assay [1]; in the assay with Cytotoxicity) were 1.27 µM and > 79 µM (inactive), respectively.
As to `COc1ccc(C2=Nn3c(nnc3-c3ccccc3OC)SC2)cc1OC1CCCC1`, the figures for the IC50 (in assay [1]; with Cytotoxicity) were 0.229 µM and > 79 µM (inactive), respectively.
On the same counts, the results for `c1cncc(-c2ccc3ncnc(NCc4ccc5c(c4)OCO5)c3c2)c1` are 6.5 µM and 6.65 µM.
The corresponding values for `N#CC(C#N)=C1SC(=Nc2ccccc2)C(=Nc2ccccc2)N1c1ccccc1` are 8.12 µM and 12.4 µM.

Source of the values: PubChem BioAssay AID624344 (Sanford-Burnham Center for Chemical Genomics, 2012).
